Experimental data: article PMC8962335, “In Vivo Evaluation of ECP Peptide Analogues for the Treatment of Acinetobacter baumannii Infection” (Biomedicines, 2022)
Values after ≈ are worked out from the molar mass of the structure shown. Values joined by “and” are separate entries in the source; they are usually repeats but may differ in a detail not shown here. Equal entries are not always repeated. Where a SMILES comes first, the peptide text is derived from it. Where no end group is shown, it is not given here.

Columns and labels:
E. coli = type: cell-based, Escherichia coli; conditions: 24 h
Text: (§1) A. baumannii strain (CECT 452, Valencia, Spain, ATCC 15308, Manassas, VA, USA) and Pseudomonas aeruginosa (P. aeruginosa) strain (CECT 4122, Valencia, Spain, ATCC 15692, Manassas, VA, USA) were from the Colección Española de Cultivos Tipo (CECT, Valencia, Spain). The Escherichia coli (E. coli) BL21 (DE3) strain was from Novagen (Darmstadt, Germany). MRC-5 cells were from the American Type Culture Collection (ATCC, Manassas, VA, USA) and HEK293T cell line was kindly provided by Dr. Raquel Pequerul (UAB, Barcelona, Spain).
(§2) The MIC is defined as the lowest concentration of one reagent to prevent visible growth of bacteria. The MIC determination was followed by the protocol described previously. Briefly, bacteria in exponential growth were used to prepare a suspension in MHB with the approximate number of 5 × 10^5 CFU/mL. Next, an aliquot of 90 μL of bacteria suspension was added into each well of the 96-well polypropylene plate. Immediately, 10 μL of peptide diluted by 0.01% acetic acid was added to the corresponding well to have a final concentration ranging from 20 to 0.16 μM. The plate was incubated for 24 h at 37 °C, 100 rpm. The presence or absence of bacterial growth was visually inspected and confirmed by reading OD600 with Tecan Microplate Reader Spark®. Each test was performed in triplicate.

[1] = Tolerance study of peptides in mouse (Up and Down, main study, extra groups); type: in vivo, Balb/c mice; conditions: for clinical score: 30 mg/kg i.p., within 30 min; for clinical score / MTD: Up and Down assay; for MTD: in vivo, ip, one single dose, i.p., 1 mouse per peptide, read-out: maximum tolerated dose; for clinical signs after a single dose (main study): single i.p. dose: 20 mg/kg ECPep-D, 25 mg/kg ECPep-2D-Orn, all mice
Protocol: Initially, the “Up and Down” protocol was followed to determine the maximum lethal dose with some modifications. Briefly, one mouse was taken per peptide and increasing doses of the peptide were injected through the intraperitoneal (i.p.) route every 48 h, and the concentration at which the mouse had severe clinical symptoms or died was determined (Figure 1a).
Figure 1 Toxicity study plans. (a) “Up and Down” protocol: 1 mouse was injected, starting at a very low peptide dose and observed at 48 h intervals. […] (b) Main study: mice were divided into groups randomly; 1 as well as 2 peptide doses below the lethal dose from the “Up and Down” assay was given two times per day for 3 days (the protocol was readjusted in case of emergency owing to ethical principles, as detailed in the results section and Table S1). An extra group is for the vehicle. (c) Last study: Peptide was tested in smaller groups at lower doses depending on the results obtained from the main study.
Once the lethal concentration had been determined, we continued with the “main study” (Figure 1b). Two groups of 6 female mice were used at two different concentrations of both peptides, one and two concentrations below the maximum considered either by lethality or by clinical signs. The toxicity was further verified by mimicking the doses and frequency foreseen in the previous study, i.e., two doses per day for 3 days as the initial plan.
There was also an extra group to confirm the non-toxicity of the vehicle. For extra caution, some additional doses were applied to confirm the safety dose in case of repeated injections (Figure 1c).
Body weight (BW, g) of mice was measured before every injection and % BW gain was calculated. % BW gain = (new BW − initial BW)/initial BW × 100%(1)
In the tolerance study, for the “Up and Down” assay, the BW was recorded twice on the administration day and, for the “main study”, it was measured every day at the first 3 days and then at some selected days until the 16th day, when the monitoring was finished. In both efficacy assays, BW was recorded once a day but on the first day (Day 0), a second measure was conducted at 8 h.
The clinical symptoms were assessed through a scoring system, which contains 9 items, including changes of body weight, behavior, breathing, skin, hair, eyes and gastrointestinal status (see full list at Table S2). The score for each item increases from 0 to 3 according to the severe levels, up to a total of 27. During the study, when an animal obtained a score of 3 in any of the parameters assessed with a maximum score of 3, euthanasia was carried out to apply the endpoint criteria. Euthanasia would also be practiced if the sum of several parameters that are less than 3 separately was ≥ 7.
In the tolerance study, the clinical score was recorded at about 10 min, 30 min, 1 h, 2 h, 4 h, 7 h, 24 h and 48 h after injecting the peptides for the “Up and Down” assay and in the main study, the clinical score were only monitored when the BW was measured. During the efficacy assay, the clinical score was recorded every 2–3 h on Day 0 and then twice every day.

MRC-5 cells = assay: Cytotoxicity assay (MTT); conditions: all the assayed time range (up to 48 h), highest concentration 100 μM
Protocol: (§3) Cytotoxicity was measured for the MRC-5 and HEK293T cell lines by MTT assay. Cells were grown in 5% CO2 at 37 °C with MRC-5 cell line maintained in MEMα and HEK293T in DMEM/F-12 media, both of which were supplemented with 10% FBS. The cells were passaged in 25 cm^2 or 75 cm^2 flasks to prepare 96-well plates with 3 × 10^4 cells/well, which were incubated overnight. Next, serial dilutions of ECPep-D and ECPep-2D-Orn were added to have a final concentration ranging from 100 to 0.78 μM (375 μg/mL to 3 μg/mL) and colistin was added at final concentrations ranging from 300 to 2.34 μM (380 μg/mL to 3 μg/mL) in corresponding wells. After incubation to the specified time, the medium of the plate was replaced by fresh medium containing 0.5 mg/mL MTT solution and the mixture was incubated for 2.5 h in 5% CO2 at 37 °C. The medium was then removed, and formazan was dissolved by adding DMSO. The optical density (OD) was recorded by using a Victor^3 plate reader (PerkinElmer, Waltham, MA, USA) set at 540 nm and 620 nm as a reference. Each test was performed in triplicate.

in vitro = conditions: human, MRC-5 cells; for CC50 at 24 h: LD50 (MRC-5) 24 h; for CC50 at 48 h: LD50 (MRC-5) 48 h
Protocol: as §3

HEK293T cells = conditions: 48 h
Protocol: as §3

A. baumannii = type: cell-based, Acinetobacter baumannii; conditions: 24 h
Text: as §1, §2

[2] = human serum in vitro; cited from earlier work
P. aeruginosa = type: cell-based, Pseudomonas aeruginosa; conditions: 24 h
Text: as §1, §2

Molecule | MIC E. coli (E. coli) [µM] | clinical score [1] | MTD [1] [mg/kg] | clinical signs after a single dose (main study) [1] | toxicity for MRC-5 at the highest tested concentration (MRC-5 cells) | CC50 at 24 h (in vitro) | CC50 at 48 h (in vitro) | IC50 (HEK293T cells) [µM] | MIC A. baumannii (A. baumannii) [µM] | half-life time in human serum [2] [h] | MIC P. aeruginosa (P. aeruginosa) [µM] | CC50 at 4 h (in vitro; LD50 (MRC-5) 4 h)
CC[C@H](C)[C@H](NC(=O)[C@H](C)NC(=O)[C@H](CCCN)NC(=O)[C@H](CCSC)NC(=O)[C@H](C)NC(=O)[C@@H](NC(=O)[C@@H](NC(=O)[C@H](CCCN)NC(=O)[C@@H]1CCCN1C(=O)[C@H](CO)NC(=O)[C@@H](NC(=O)[C@H](Cc1c[nH]cn1)NC(=O)[C@H](CCC(N)=O)NC(=O)[C@@H](NC(=O)[C@H](C)NC(=O)[C@H](Cc1ccccc1)NC(=O)[C@H](Cc1c[nH]c2ccccc12)NC(=O)[C@H](CCC(N)=O)NC(=O)[C@H](C)NC(=O)[C@H](CCCN)NC(=O)[C@@H](NC(=O)[C@H](Cc1ccccc1)NC(=O)[C@H]1CCCN1C(=O)[C@@H](N)CCCN)[C@@H](C)O)[C@@H](C)CC)[C@@H](C)CC)[C@@H](C)O)[C@@H](C)CC)C(=O)N[C@@H](CC(N)=O)C(=O)N[C@@H](CC(N)=O)C(=O)N[C@@H](Cc1ccc(O)cc1)C(=O)N[C@@H](CCCN)C(=O)N[C@@H](Cc1c[nH]c2ccccc12)C(=O)N[C@@H](CCCN)C(N)=O [ECPep-2D-Orn] (HELM PEPTIDE1{[Orn].[dP].F.T.[Orn].A.Q.W.F.A.I.Q.H.I.S.P.[Orn].T.I.A.M.[Orn].A.I.N.N.Y.[Orn].W.[Orn].[am]}$$$$V2.0) | >20 | over 6 | 25 | did not cause any obvious clinical signs | no toxicity was observed | > 100 µM and > 351 µg/mL | > 100 µM and > 351 µg/mL | > 100 | 5 (≈ 17.5 µg/mL) | > 8 | >20 | –
CC[C@@H](C)[C@@H](NC(=O)[C@@H](C)NC(=O)[C@@H](CCCNC(=N)N)NC(=O)[C@@H](CCSC)NC(=O)[C@@H](C)NC(=O)[C@H](NC(=O)[C@H](NC(=O)[C@@H](CCCNC(=N)N)NC(=O)[C@H]1CCCN1C(=O)[C@@H](CO)NC(=O)[C@H](NC(=O)[C@@H](Cc1c[nH]cn1)NC(=O)[C@@H](CCC(N)=O)NC(=O)[C@H](NC(=O)[C@@H](C)NC(=O)[C@@H](Cc1ccccc1)NC(=O)[C@@H](Cc1c[nH]c2ccccc12)NC(=O)[C@@H](CCC(N)=O)NC(=O)[C@@H](C)NC(=O)[C@@H](CCCNC(=N)N)NC(=O)[C@H](NC(=O)[C@@H](Cc1ccccc1)NC(=O)[C@H]1CCCN1C(=O)[C@H](N)CCCNC(=N)N)[C@H](C)O)[C@H](C)CC)[C@H](C)CC)[C@H](C)O)[C@H](C)CC)C(=O)N[C@H](CC(N)=O)C(=O)N[C@H](CC(N)=O)C(=O)N[C@H](Cc1ccc(O)cc1)C(=O)N[C@H](CCCNC(=N)N)C(=O)N[C@H](Cc1c[nH]c2ccccc12)C(=O)N[C@H](CCCNC(=N)N)C(N)=O [ECPep-D] (HELM PEPTIDE1{[dR].[dP].[dF].[dT].[dR].[dA].[dQ].[dW].[dF].[dA].[dI].[dQ].[dH].[dI].[dS].[dP].[dR].[dT].[dI].[dA].[dM].[dR].[dA].[dI].[dN].[dN].[dY].[dR].[dW].[dR].[am]}$$$$V2.0) | 10 (≈ 37.6 µg/mL) | over 6 | 20 | did not cause any obvious clinical signs | – | 164 ± 33.2 µg/mL (≈ 43.5 µM) | 88.4 ± 17.8 µg/mL (≈ 23.5 µM) | – | 10 (≈ 37.6 µg/mL) | – | 10 (≈ 37.6 µg/mL) | –
RPFTRAQWFAIQHISPRTIAMRAINNYRWR-NH2 [ECPep-L] | 10 | – | – | – | – | – | – | – | 10 | 0.2 | 10 | 276 µM and > 1000 µg/mL
